Results from ChEMBL document CHEMBL3727342, “Compounds and methods for kinase modulation, and indications therefor” (2012).

Legend:
[1] = target: Vascular endothelial growth factor receptor 2 (Homo sapiens, UniProt P35968); assay: Inhibition of KDR (unknown origin) by FRET assay
[2] = target: RAF proto-oncogene serine/threonine-protein kinase (Homo sapiens, UniProt P04049); assay: Inhibition of human C-raf using biotin-MEK1 substrate incubated for 1 hr
[3] = target: Tyrosine-protein kinase BTK (Homo sapiens, UniProt Q06187); assay: Inhibition of Btk (unknown origin) by FRET assay
Sequence of Tyrosine-protein kinase BTK (Q06187 whole entry): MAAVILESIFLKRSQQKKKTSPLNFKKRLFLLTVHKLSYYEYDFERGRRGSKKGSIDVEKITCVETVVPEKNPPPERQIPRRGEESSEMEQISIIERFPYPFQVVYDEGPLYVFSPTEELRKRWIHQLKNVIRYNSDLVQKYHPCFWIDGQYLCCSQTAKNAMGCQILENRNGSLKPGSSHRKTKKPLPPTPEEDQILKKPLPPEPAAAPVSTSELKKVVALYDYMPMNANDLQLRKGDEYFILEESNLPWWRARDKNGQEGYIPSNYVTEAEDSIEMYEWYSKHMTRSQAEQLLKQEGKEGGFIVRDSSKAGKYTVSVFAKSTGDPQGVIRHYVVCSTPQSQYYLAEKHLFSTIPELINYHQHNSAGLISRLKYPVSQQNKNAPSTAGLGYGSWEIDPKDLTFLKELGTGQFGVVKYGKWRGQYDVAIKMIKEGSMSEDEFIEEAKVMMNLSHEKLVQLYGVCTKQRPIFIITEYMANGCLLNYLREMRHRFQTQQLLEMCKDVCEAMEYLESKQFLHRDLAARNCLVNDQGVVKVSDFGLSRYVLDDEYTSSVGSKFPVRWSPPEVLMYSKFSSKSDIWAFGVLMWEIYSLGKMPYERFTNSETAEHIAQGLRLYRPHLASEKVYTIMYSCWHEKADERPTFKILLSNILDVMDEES

[4] = target: Serine/threonine-protein kinase B-raf (Homo sapiens, UniProt P15056); assay: Inhibition of N-terminal GST-tagged human recombinant B-Raf (416 to end residues) using biotin-MEK1 substrate incubated for 1 hr
Sequence of Serine/threonine-protein kinase B-raf (P15056 whole entry): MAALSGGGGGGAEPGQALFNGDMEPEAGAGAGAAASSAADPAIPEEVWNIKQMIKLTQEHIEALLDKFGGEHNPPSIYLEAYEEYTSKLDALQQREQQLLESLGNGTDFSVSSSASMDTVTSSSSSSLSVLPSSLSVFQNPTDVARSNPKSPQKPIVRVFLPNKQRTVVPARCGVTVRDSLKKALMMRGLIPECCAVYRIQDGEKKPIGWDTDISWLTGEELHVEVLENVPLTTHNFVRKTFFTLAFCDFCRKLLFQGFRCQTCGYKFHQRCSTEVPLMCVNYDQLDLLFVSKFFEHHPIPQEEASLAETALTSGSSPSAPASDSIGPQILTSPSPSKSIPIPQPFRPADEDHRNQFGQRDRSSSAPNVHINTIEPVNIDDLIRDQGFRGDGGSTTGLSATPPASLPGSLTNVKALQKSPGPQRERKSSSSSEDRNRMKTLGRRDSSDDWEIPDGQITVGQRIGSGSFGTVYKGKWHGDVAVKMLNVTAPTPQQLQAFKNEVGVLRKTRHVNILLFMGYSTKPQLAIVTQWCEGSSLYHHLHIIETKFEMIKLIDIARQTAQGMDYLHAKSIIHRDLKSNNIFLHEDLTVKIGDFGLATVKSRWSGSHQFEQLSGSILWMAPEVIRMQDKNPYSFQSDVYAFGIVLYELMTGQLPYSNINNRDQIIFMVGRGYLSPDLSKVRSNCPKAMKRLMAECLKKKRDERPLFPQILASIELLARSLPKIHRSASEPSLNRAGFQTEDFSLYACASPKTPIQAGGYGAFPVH

[5] = target: Proto-oncogene tyrosine-protein kinase Src (Homo sapiens, UniProt P12931); assay: Inhibition of Src (unknown origin) expressed in Escherichia coli using biotin-(E4Y)3 substrate
Sequence of Proto-oncogene tyrosine-protein kinase Src (P12931 2-536 limits assumed): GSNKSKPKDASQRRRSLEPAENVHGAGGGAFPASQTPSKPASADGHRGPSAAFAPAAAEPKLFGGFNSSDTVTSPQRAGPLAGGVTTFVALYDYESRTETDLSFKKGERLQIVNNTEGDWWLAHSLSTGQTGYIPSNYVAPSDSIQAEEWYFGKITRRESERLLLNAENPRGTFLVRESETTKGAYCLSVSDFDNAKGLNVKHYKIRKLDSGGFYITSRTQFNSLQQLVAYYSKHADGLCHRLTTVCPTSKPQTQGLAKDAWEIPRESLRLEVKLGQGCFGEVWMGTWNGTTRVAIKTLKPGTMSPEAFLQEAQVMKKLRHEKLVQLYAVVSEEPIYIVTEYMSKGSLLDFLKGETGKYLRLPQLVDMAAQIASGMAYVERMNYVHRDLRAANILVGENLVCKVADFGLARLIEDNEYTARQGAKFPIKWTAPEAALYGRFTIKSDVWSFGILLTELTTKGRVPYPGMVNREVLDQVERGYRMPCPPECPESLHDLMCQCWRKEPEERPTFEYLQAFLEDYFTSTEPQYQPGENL

[6] = target: Mast/stem cell growth factor receptor Kit (Homo sapiens, UniProt P10721); assay: Inhibition of Kit (unknown origin) expressed in Escherichia coli
Sequence of Mast/stem cell growth factor receptor Kit (P10721 whole entry): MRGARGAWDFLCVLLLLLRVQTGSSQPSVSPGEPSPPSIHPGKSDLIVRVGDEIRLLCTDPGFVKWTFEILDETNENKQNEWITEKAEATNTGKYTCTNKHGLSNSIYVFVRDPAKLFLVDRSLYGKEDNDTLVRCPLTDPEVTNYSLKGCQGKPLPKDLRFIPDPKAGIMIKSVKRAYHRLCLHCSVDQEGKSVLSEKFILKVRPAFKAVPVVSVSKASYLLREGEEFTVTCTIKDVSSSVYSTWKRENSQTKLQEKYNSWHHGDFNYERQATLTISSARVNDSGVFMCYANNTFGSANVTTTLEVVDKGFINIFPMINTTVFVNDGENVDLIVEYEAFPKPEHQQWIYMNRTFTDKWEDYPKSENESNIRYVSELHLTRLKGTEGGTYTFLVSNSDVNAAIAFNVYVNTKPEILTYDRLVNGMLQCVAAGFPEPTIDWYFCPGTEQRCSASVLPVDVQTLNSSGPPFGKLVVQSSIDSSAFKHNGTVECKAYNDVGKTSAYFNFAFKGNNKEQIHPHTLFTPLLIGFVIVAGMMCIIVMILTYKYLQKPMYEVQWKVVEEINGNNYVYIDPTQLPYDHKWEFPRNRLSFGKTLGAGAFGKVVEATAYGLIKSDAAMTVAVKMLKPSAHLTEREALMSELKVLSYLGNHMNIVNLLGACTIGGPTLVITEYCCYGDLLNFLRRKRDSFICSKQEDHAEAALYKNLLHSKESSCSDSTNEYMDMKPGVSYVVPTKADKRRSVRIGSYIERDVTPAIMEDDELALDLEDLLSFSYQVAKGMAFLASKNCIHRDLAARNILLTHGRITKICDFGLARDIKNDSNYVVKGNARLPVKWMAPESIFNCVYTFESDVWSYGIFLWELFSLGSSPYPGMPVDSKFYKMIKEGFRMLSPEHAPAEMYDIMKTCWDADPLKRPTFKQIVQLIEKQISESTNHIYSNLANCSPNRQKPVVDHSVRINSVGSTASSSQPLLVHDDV

Measured: IC50

Sequence of Vascular endothelial growth factor receptor 2 (P35968 whole entry): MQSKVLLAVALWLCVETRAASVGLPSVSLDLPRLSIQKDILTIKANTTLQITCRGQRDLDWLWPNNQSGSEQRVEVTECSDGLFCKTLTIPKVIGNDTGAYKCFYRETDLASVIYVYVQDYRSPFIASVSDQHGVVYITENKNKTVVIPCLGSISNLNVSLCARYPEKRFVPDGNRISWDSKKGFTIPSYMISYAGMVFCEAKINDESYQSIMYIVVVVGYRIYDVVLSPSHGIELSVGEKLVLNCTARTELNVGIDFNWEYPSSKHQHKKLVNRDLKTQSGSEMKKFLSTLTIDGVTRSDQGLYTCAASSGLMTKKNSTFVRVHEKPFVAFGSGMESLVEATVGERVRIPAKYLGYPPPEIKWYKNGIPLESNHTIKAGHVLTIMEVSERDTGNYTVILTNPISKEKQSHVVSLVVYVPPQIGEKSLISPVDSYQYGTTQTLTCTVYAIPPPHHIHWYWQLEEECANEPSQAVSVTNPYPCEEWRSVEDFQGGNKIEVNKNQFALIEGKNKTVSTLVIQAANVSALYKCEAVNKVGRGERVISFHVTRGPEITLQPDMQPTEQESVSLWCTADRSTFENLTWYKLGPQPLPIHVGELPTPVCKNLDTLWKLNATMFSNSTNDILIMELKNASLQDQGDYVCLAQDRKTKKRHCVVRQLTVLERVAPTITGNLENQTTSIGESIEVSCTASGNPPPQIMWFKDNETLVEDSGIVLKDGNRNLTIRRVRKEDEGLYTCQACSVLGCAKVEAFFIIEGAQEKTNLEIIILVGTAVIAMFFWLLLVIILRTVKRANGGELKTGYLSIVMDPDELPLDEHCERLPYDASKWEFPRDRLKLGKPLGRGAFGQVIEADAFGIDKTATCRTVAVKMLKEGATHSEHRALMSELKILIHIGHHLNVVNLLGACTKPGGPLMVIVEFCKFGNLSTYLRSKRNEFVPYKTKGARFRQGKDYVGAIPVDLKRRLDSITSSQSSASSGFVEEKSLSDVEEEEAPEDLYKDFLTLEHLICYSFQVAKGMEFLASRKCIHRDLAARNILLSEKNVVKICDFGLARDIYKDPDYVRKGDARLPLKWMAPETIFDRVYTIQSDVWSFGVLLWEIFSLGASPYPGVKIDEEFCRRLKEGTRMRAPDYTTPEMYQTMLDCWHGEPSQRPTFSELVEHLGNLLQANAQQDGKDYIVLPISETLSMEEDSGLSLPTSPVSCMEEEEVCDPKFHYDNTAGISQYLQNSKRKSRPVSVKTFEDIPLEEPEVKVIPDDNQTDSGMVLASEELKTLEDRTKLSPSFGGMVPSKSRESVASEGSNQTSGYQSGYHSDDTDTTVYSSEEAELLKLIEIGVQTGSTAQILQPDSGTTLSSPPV
Sequence of RAF proto-oncogene serine/threonine-protein kinase (P04049 whole entry): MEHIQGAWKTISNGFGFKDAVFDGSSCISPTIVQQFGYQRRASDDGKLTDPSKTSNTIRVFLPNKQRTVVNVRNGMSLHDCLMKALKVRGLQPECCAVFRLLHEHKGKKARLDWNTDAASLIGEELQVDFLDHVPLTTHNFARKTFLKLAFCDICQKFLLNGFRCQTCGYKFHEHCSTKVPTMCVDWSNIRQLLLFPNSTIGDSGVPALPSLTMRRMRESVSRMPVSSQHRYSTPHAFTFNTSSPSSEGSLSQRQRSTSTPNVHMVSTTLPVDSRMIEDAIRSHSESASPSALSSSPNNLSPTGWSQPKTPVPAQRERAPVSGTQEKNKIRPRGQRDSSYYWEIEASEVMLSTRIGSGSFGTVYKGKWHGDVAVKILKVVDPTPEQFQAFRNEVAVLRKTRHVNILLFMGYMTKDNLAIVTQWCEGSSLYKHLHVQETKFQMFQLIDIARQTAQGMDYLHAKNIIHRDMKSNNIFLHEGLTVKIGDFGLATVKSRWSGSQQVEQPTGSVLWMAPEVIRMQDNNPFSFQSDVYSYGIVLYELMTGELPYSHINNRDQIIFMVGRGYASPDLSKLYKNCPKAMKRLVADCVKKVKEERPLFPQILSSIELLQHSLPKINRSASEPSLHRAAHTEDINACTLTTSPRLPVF

O=C(c1cccc(NS(=O)(=O)c2c(F)cccc2F)c1F)c1c[nH]c2ncncc12
≤ 10 µM: all assays above
